Data set [1] has as its system S. aureus. The experiment in a line: MIC by microdilution broth method (NCCLS), S. aureus Broth. Format: cell-based. The following applies: Staphylococcus aureus, cation adjusted Mueller-Hinton broth, 35° C., 16-20 hours, read-out: MIC (μg/mL) S. aureus Broth. Here is the method:
(§1) Minimal inhibitory concentration (MIC) has been an indicator of in vitro antibacterial activity widely used in the art. The in vitro antimicrobial activity of the compounds was determined by the microdilution broth method following the test method from the National Committee for Laboratory Standards (NCCLS). This method is described in the NCCLS Document M7-A4, Vol. 17, No.2, “Methods for Dilution Antimicrobial Susceptibility Test for Bacteria that Grow Aerobically-Fourth Edition”, which is incorporated herein by reference.
(§2) In this method two-fold serial dilutions of drug in cation adjusted Mueller-Hinton broth are added to wells in microdilution trays. The test organisms are prepared by adjusting the turbidity of actively growing broth cultures so that the final concentration of test organism after it is added to the wells is approximately 5×10^4 CFU/well.
(§3) Following inoculation of the microdilution trays, the trays are incubated at 35° C. for 16-20 hours and then read. […] The amount of growth in the wells containing the test compound is compared with the amount of growth in the growth-control wells (no test compound) used in each tray. As set forth in Table 1, compounds of the present invention were tested against a variety of Gram positive and Gram negative pathogenic bacteria resulting in a range of activities, from 1 to ≧128 μg/mL depending on the organism tested.
In general terms: Broth dilution looks for growth in wells or tubes with falling amounts of substance.

For data set [2], the system named is MRSA OC 2878. The experiment in a line: MIC by microdilution broth method (NCCLS), MRSA OC 2878. Format: cell-based, Staphylococcus aureus. The following applies: Staphylococcus aureus, MRSA, cation adjusted Mueller-Hinton broth, 35° C., 16-20 hours, read-out: MIC (μg/mL) MRSA OC 2878. The protocol:
as §1, §2, §3

In data set [3] the test system is E. faecium OC3312. The data set can be described thus: MIC by microdilution broth method (NCCLS), E. faecium OC3312. Format: cell-based. The following applies: Enterococcus faecium, OC3312, microdilution broth, cation adjusted Mueller-Hinton broth, 35° C., 16-20 hours; read-out: MIC (μg/mL) E. faecium OC3312. The protocol:
as §1, §2, §3

In brackets after ≈: the same amount, converted by molar mass. Some results are limits rather than exact numbers.

Broadly, the melting point is the temperature, or range, at which the solid turns liquid. Compound `CC(=O)NC[C@H]1CN(c2ccc(OC3CCN(C(=O)c4cccs4)CC3)c(F)c2)C(=O)O1` [Compound 22, (S)-N-[[3-[3-Fluoro-4-{N-(2-thienylcarbonyl)piperidinyl-4-oxy}phenyl]-2-oxo-5-oxazolidinyl]methyl]acetamide] had a melting point of 48 to 51 °C. The MIC in data set [1] was found to be 8 µg/mL (≈ 17.3 µM). For the same compound, in data set [2], the MIC is 4 µg/mL (≈ 8.67 µM). In data set [3], the MIC came out at 8 µg/mL (≈ 17.3 µM).

For `CC(=O)NC[C@H]1CN(c2ccc(OC3CCN(C(=O)OC(C)(C)C)CC3)c(F)c2)C(=O)O1` [Compound 1, (S)-N-[[3-[3-Fluoro-4-{N-(t-butoxycarbonyl)piperidinyl-4-oxy}phenyl]-2-oxo-5-oxazolidinyl]methyl]acetamide], the melting point is 179 to 180 °C. The MIC in data set [1] worked out at 32 µg/mL (≈ 70.9 µM). Also, the MIC in data set [2] stood at 16 µg/mL (≈ 35.4 µM). Also, the MIC in data set [3] is more than 32 µg/mL.

In turn, `CC(=O)NC[C@H]1CN(c2ccc(OC3CCN(C(=O)CCCc4cccnc4)CC3)c(F)c2)C(=O)O1` [Compound 26, (S)-N-[[3-[3-Fluoro-4-{N-(4-pyridin-3-yl-butyryl)piperidinyl-4-oxy}phenyl]-2-oxo-5-oxazolidinyl]methyl]acetamide] yielded a melting point of 42 to 45 °C. Also, the MIC in data set [1] came out at 16 µg/mL (≈ 32.1 µM). The MIC in data set [2] was determined as 8 µg/mL (≈ 16 µM). The MIC in data set [3] worked out at 16 µg/mL (≈ 32.1 µM).

In turn, `CC(=O)NC[C@H]1CN(c2ccc(OC3CCN(C(=O)CCc4cccnc4)CC3)c(F)c2)C(=O)O1` [Compound 27, (S)-N-[[3-[3-Fluoro-4-{N-(3-pyridin-3-yl-propionyl)piperidinyl-4-oxy}phenyl]-2-oxo-5-oxazolidinyl]methyl]acetamide] displayed a melting point of 45 to 47 °C. The MIC in data set [1] amounted to 16 µg/mL (≈ 33 µM). In addition, in data set [2], the MIC worked out at 16 µg/mL (≈ 33 µM). Also, in data set [3], the MIC stood at 16 µg/mL (≈ 33 µM).

With `CC(=O)NC[C@H]1CN(c2ccc(OC3CCNCC3)c(F)c2)C(=O)O1` [Compound 2, (S)-N-[[3-[3-Fluoro-4-{piperidinyl-4-oxy}phenyl]-2-oxo-5-oxazolidinyl]methyl]acetamide], the melting point lay in the range of 55 to 59 °C. Besides, the MIC in data set [1] was 8 µg/mL (≈ 22.8 µM). In addition, in data set [2], the MIC was 32 µg/mL (≈ 91.1 µM). In addition, the MIC in data set [3] is 8 µg/mL (≈ 22.8 µM).

With `CC(=O)NC[C@H]1CN(c2ccc(OC3CCN(C(=O)c4ccc(C#N)cc4)CC3)c(F)c2)C(=O)O1` [Compound 11, (S)-N-[[3-[3-Fluoro-4-{N-(4-cyanobenzoyl)piperidinyl-4-oxy}phenyl]-2-oxo-5-oxazolidinyl]methyl]acetamide], the melting point was 75 to 78 °C. Further, the MIC in data set [1] stood at 16 µg/mL (≈ 33.3 µM). Further, in data set [2], the MIC was determined as 8 µg/mL (≈ 16.6 µM). Further, in data set [3], the MIC amounted to 16 µg/mL (≈ 33.3 µM).

Compound `CC(=O)NC[C@H]1CN(c2ccc(OC3CCN(C(=O)c4ccccn4)CC3)c(F)c2)C(=O)O1` [Compound 20, (S)-N-[[3-[3-Fluoro-4-{N-(2-pyridoyl)piperidinyl-4-oxy}phenyl]-2-oxo-5-oxazolidinyl]methyl]acetamide] gave a melting point of 55 to 58 °C. Also, the MIC in data set [1] came to 8 µg/mL (≈ 17.5 µM). In data set [2], the MIC was found to be 8 µg/mL (≈ 17.5 µM). Further, the MIC in data set [3] was determined as 16 µg/mL (≈ 35.1 µM).

With `CC(=O)NC[C@H]1CN(c2ccc(OC3CCN(C(=O)OC(C)(C)C)CC3)nc2)C(=O)O1` [Compound 41, (5S)-3-[6-{N-(t-Butoxycarbonyl)piperidinyl-4-oxy}-pyridin-3-yl]-5-methylacetamide-oxazolidin-2-one], the melting point was in the range of 99 to 101 °C. Also, the MIC in data set [1] was 128 µg/mL (≈ 295 µM). In data set [2], the MIC amounted to 64 µg/mL (≈ 147 µM). The MIC in data set [3] is more than 128 µg/mL.

As for `CC(=O)NC[C@H]1CN(c2ccc(OC3CCN(C(=O)COCc4ccccc4)C3)c(F)c2)C(=O)O1` (stereo partly drawn) [Compound 39, (S)-N-[[3-[3-Fluoro-4-{N-(benzyloxyacetyl)pyrrolidinyl-3-oxy}phenyl]-2-oxo-5-oxazolidinyl]methyl]acetamide], the melting point lay within 53 to 55 °C. Moreover, the MIC in data set [1] turned out to be 16 µg/mL (≈ 33 µM). Also, the MIC in data set [2] was 16 µg/mL (≈ 33 µM). The MIC in data set [3] is 16 µg/mL (≈ 33 µM).

(Values after US20020103377A1, “Piperidinyloxy and pyrrolidinyloxy oxazolidinone antibacterials” (priority 1999, published 2002).)
